Laboratory results as given in patent US6410557B1, “Dry skin remedies” (Daiichi Pharmaceutical Col, Ltd., priority 1999, dated 2002).
Read-outs that look alike come from different tables or passages of the source.

What was measured:
[1] = test system: Rat Foot Skin; test: Promoting action on the secretion of sweat in rat foot skin (starch-iodine reaction); assay type: in vivo
Protocol: A pharmacological activity test was carried out using 6 male Wister rats (body weight 199-238 g) in one group. After fasting for 1 day, rats were anesthetized by 50 mg/kg of sodium pentobarbital which was intraperitoneally administered, and an endotracheal tube was inserted to maintain the airway.
The soles of the right and left feet were cleaned with 70% ethanol, then 95% ethanol containing 2% of iodine was applied and allowed to dry. Castor oil containing 50% corn starch was coated to the soles of both feet, 5 minutes later a solvent alone or 1,3,10, and 30 mg/kg of cis-2-methylspiro(1,3-oxathiolane-5,3′)quinuclidine hydrochloride were administered intravenously.

[2] = test system: Humans
Protocol: A multi-facility double blind comparison study was carried out for examination of perspiration promoting action on human, by preparing capsules containing 30 or 60 mg of cis-2-methylspiro(1,3-oxathiolane-5,3′)quinuclidine hydrochloride. 75 Americans (69 White, 1 Black, and 5 Hispanic subjects) were divided into 3 groups randomly. Each group received either one placebo capsule (0 mg), one 30 mg capsule, or one 60 mg capsule orally administered three times a day for 6 weeks. The increase of perspiration in each group was tested.

[3] = 30 mg capsule orally × 3/day for 6 weeks, 25 subjects
[4] = 60 mg capsule orally × 3/day for 6 weeks, 27 subjects

SMILES	effect on the sweat secretion promoting activity of the quinuclidine hydrochloride ([1]; rat soles of feet)	sweat secretion on the soles of both feet (number of colored points, degree of perspiration) ([1]; anesthetized male Wister rats, 1, 3, 10 and 30 mg/kg intravenously, FIG. 1)	Number of Subjects Showing perspiration [2, 3]	Number of Subjects Showing perspiration (%) [2, 3] [%]	Number of Subjects Showing perspiration [2, 4]	Number of Subjects Showing perspiration (%) [2, 4] [%]	sweat secretion of human ([2]; capsules, oral, three times a day for 6 weeks)
CN1[C@@H]2CC[C@H]1C[C@@H](OC(=O)C(CO)c1ccccc1)C2 (stereo partly shown) [atropine, reference compound]	blocks this activity						
CC1OC2(CS1)CN1CCC2CC1.Cl (stereo not drawn) [cis-2-methylspiro(1,3-oxathiolane-5,3′)quinuclidine hydrochloride]		promoted depending on the dose level	4	16.0	13	48.1	remarkably promoted
